From patent US8063214B2, “Polymorphic forms of tadalafil” (Dr. Reddy's Laboratories Limited, priority 2004, dated 2011)

Tests used:
Format in all cases: physicochemical
[1] = Particle size distribution by MASTERSIZER 2000 laser light scattering
Source text: The particle size distribution plots of the drawings were obtained using a MASTERSIZER™ 2000 laser light scattering instrument sold by Malvern Instruments Ltd. of Malvern, Worcestershire, United Kingdom. In the plots, values in the vertical axis represent a volume percentage of particles and the horizontal axis is a logarithmic scale of particle sizes, in μm units.

[2] = Bulk density and tapped bulk density, Test Method 616 of United States Pharmacopeia 24; settings: for tapped bulk density: after tapping
[3] = Storage of polymorphic forms under ambient conditions, form checked by XRPD; settings: for polymorphic form after storage (XRPD pattern): ambient conditions; for polymorphic form stability upon storage: storage at ambient temperatures
Source text: The various forms of tadalafil are characterized by their XRPD patterns, which differ between polymorpic forms. All XRPD results reported herein were obtained using Cu Kα radiation, having the wavelength 1.541 Å. The XRPD patterns of the figures have a vertical axis that is intensity units, and a horizontal axis that is degrees 2θ.

Row | SMILES | diameters of 10 volume percent of the particles [1] | diameters of 50 volume percent of the particles [1] | diameters of 90 volume percent of the particles [1] | bulk density [2] [g/mL] | tapped bulk density [2] [g/mL] | polymorphic form stability upon storage ([3]; listed as mixtures of Form A and Form B) | polymorphic form stability upon storage [3] | polymorphic form after storage (XRPD pattern) ([3]; sealed polyethylene bag, 3 to 4 days) | polymorphic form after storage (XRPD pattern) ([3]; sealed in a polyethylene bag, 40 hours)
1 | CN1CC(=O)N2[C@H](c3ccc4c(c3)OCO4)c3[nH]c4ccccc4c3C[C@@H]2C1=O [Example 1, tadalafil] | less than 31 μm | less than 104 μm | less than 321 μm | 0.344 | 0.666 |  |  |  | 
2 | CN1CC(=O)N2[C@H](c3ccc4c(c3)OCO4)c3[nH]c4ccccc4c3C[C@@H]2C1=O [Example 11, tadalafil] | less than 9.9 μm | less than 40 μm | less than 148 μm | 0.181 | 0.434 |  |  |  | 
3 | CN1CC(=O)N2[C@H](c3ccc4c(c3)OCO4)c3[nH]c4ccccc4c3C[C@@H]2C1=O [Example 15, tadalafil] | less than 58 μm | less than 193 μm | less than 428 μm | 0.435 | 0.626 |  |  |  | 

Continued, in another order:

Row | diameters of 10 volume percent of the particles [1] | diameters of 50 volume percent of the particles [1] | diameters of 90 volume percent of the particles [1] | bulk density [2] [g/mL] | tapped bulk density [2] [g/mL] | polymorphic form stability upon storage ([3]; listed as mixtures of Form A and Form B) | polymorphic form stability upon storage [3] | SMILES | polymorphic form after storage (XRPD pattern) ([3]; sealed polyethylene bag, 3 to 4 days) | polymorphic form after storage (XRPD pattern) ([3]; sealed in a polyethylene bag, 40 hours)
4 |  |  |  |  |  | will convert to only Form A |  | CN1CC(=O)N2[C@H](c3ccc4c(c3)OCO4)c3[nH]c4ccccc4c3C[C@@H]2C1=O [Example 21, tadalafil] | conversion of the tadalafil Form B into Form A | 
5 |  |  |  |  |  |  | spontaneously converts to Form A | CN1CC(=O)N2[C@H](c3ccc4c(c3)OCO4)c3[nH]c4ccccc4c3C[C@@H]2C1=O [Tadalafil Form B, tadalafil] |  | conversion of the tadalafil Form B into Form A
